{
  "source": "ChEMBL document CHEMBL5352402",
  "about": "“Discovery of novel non-nucleoside inhibitors with high potency and selectivity for DNA methyltransferase 3A” (Eur J Med Chem, 2022)",
  "key": {"[1]": {"molecular_target": "DNA (cytosine-5)-methyltransferase 3A (Homo sapiens) (UniProt Q9Y6K1)", "sequence (Q9Y6K1 whole entry, looked up)": "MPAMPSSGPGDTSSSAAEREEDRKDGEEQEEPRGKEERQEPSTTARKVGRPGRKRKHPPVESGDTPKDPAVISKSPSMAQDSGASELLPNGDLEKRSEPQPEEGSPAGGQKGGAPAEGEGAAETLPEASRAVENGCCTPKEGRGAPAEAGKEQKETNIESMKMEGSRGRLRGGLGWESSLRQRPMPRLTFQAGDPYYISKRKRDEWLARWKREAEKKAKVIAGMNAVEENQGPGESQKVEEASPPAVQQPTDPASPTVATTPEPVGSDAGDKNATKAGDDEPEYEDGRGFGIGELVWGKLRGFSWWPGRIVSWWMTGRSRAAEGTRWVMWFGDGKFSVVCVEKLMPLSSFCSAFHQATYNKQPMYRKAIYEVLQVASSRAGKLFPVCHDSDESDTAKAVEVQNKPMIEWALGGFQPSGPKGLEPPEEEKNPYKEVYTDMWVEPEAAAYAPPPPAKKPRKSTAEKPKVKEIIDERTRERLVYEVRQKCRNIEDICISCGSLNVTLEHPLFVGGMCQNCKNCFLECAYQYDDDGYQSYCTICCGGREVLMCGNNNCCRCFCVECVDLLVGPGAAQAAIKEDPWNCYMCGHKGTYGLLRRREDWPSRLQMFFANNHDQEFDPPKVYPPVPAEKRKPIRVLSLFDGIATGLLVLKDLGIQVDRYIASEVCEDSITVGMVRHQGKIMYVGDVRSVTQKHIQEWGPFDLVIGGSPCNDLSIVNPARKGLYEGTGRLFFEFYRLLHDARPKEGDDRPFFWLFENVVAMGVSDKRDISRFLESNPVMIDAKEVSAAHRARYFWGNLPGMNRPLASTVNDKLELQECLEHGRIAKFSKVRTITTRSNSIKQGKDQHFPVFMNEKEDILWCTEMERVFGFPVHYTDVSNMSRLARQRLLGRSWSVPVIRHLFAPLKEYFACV", "test": "Inhibition of DNMT3A in human HCT-116 cells assessed as downregulation of DNMT3A protein level at 1 uM incubated for 72 hrs by Western blot analysis", "format": "cell-based"}, "[2]": {"molecular_target": "T1, Histone-lysine N-methyltransferase EHMT2 (Homo sapiens, UniProt Q96KQ7)", "T1 sequence (Q96KQ7 whole entry)": "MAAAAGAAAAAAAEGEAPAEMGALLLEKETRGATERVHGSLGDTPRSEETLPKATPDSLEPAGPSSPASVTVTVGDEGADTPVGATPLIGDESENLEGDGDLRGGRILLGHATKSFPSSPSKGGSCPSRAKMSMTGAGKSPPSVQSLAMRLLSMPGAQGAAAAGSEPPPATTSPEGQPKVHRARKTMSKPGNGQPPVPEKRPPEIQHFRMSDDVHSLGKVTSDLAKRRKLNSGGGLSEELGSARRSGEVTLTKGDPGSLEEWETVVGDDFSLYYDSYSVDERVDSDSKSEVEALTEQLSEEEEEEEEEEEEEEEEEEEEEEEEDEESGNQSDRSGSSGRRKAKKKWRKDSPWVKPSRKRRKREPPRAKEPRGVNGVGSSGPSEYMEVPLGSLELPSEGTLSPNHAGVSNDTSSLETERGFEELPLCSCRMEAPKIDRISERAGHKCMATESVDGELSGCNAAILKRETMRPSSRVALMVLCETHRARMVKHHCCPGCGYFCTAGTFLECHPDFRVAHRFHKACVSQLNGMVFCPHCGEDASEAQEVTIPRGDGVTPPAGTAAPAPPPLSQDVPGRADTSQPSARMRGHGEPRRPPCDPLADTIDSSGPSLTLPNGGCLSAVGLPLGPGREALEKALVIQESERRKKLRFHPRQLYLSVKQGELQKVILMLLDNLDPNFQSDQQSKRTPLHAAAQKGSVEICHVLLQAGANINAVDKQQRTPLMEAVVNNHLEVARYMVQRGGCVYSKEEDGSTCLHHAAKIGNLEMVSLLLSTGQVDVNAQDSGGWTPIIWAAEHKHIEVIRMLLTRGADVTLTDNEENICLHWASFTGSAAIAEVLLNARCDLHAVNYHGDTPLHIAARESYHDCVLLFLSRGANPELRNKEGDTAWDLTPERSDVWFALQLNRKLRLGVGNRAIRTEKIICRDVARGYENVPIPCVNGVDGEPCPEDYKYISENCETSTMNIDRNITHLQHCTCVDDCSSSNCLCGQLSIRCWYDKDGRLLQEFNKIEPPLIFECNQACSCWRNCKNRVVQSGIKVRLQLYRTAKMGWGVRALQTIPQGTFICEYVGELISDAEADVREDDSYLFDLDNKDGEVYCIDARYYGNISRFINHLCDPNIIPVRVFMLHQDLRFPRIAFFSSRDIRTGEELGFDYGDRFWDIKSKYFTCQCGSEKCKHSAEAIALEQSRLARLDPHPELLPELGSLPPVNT", "test": "Inhibition of N-terminal GST-tagged human G9a expressed in baculovirus infected Sf9 cells using biotinylated histone H3 peptide as substrate preincubated for 15 mins followed by substrate addition in presence of SAM and measured after 60 mins by AlphaLISA assay"}, "[3]": {"test": "Cytotoxicity activity against human PBMC cells assessed as inhibition of cell proliferation incubated for 72 hrs by MTT assay", "format": "toxicity, cell-based"}, "DU-145 [4]": {"system": "DU-145", "test": "Antiproliferative activity against human DU-145 cells assessed as inhibition of cell proliferation at 0.1 to 100 uM incubated upto 72 hrs by MTT assay", "format": "functional, cell-based", "conditions": "dose 0.1-100 µM"}, "A549 [5]": {"system": "A549", "test": "cells", "conditions": "Homo sapiens, A549, 72 h", "description": "Antiproliferative activity against human A549 cells assessed as inhibition of cell proliferation incubated for 72 hrs by MTT assay"}, "K562 [6]": {"system": "K562", "test": "Antiproliferative activity against human K562 cells assessed as inhibition of cell proliferation at 100 uM incubated for 24 to 72 hrs by MTT assay", "format": "functional, cell-based", "conditions": "time 24-72 hrs, TDE = time-dependent effect"}, "[7]": {"molecular_target": "DNA (cytosine-5)-methyltransferase 1 (Homo sapiens, UniProt P26358)", "sequence (P26358 whole entry)": "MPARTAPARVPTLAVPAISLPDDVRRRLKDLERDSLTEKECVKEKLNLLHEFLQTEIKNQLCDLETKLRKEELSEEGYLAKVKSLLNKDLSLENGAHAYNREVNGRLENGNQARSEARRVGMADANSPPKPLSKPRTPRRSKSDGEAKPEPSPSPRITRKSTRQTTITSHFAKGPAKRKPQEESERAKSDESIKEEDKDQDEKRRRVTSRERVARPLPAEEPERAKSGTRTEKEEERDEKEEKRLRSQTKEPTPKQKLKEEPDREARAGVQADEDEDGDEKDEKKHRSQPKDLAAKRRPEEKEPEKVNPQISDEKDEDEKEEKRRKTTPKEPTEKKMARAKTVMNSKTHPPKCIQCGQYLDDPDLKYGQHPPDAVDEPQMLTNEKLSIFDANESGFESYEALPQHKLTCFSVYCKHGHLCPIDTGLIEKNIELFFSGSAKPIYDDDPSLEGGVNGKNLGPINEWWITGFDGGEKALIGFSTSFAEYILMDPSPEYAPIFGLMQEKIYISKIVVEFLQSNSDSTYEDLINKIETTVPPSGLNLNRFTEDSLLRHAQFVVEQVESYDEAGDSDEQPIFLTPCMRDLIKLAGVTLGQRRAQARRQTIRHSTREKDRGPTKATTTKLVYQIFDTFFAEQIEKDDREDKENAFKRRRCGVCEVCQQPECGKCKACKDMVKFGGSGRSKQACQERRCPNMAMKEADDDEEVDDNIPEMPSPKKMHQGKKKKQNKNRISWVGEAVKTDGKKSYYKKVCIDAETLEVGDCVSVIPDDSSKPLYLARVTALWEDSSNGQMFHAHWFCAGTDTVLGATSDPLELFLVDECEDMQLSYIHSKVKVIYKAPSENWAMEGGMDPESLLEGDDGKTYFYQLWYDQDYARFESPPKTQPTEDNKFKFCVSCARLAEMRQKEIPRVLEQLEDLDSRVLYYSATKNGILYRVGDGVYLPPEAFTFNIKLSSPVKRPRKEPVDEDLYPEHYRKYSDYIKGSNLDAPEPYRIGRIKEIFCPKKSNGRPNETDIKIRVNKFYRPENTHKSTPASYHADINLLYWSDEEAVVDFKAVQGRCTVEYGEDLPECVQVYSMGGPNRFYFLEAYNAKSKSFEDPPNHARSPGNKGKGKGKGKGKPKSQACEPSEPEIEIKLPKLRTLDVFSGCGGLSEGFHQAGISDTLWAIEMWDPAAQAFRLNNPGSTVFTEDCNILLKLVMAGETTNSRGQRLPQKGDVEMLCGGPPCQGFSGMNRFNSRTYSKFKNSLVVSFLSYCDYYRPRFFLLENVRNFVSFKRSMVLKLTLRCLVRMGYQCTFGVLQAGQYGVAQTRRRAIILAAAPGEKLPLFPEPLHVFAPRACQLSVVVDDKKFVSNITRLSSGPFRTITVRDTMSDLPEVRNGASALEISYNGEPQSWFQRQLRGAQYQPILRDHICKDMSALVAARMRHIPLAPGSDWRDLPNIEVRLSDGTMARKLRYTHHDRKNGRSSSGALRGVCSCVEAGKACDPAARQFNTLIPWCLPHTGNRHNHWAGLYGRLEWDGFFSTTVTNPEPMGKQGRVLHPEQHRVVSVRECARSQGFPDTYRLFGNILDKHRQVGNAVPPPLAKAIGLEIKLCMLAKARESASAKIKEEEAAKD", "test": "Inhibition of N-terminal GST-tagged full-length recombinant human DNMT1 assessed as DNA methylation using pdI-pdC DNA as substrate preincubated for 15 mins followed by substrate addition in presence of [3H]-SAM and measured after 150 mins by radioactive methylation assay"}, "DU-145 [8]": {"system": "DU-145", "test": "Antiproliferative activity against human DU-145 cells assessed as inhibition of cell proliferation at 100 uM incubated for 24 to 72 hrs by MTT assay", "format": "functional, cell-based", "conditions": "time 24-72 hrs, TDE = time-dependent effect"}, "THP-1 [9]": {"system": "THP-1", "test": "Antiproliferative activity against human THP-1 cells assessed as inhibition of cell proliferation incubated for 72 hrs by MTT assay", "format": "functional, cell-based", "conditions": "THP-1, 72 h"}, "U-937 [10]": {"system": "U-937", "test": "Antiproliferative activity against human U-937 cells assessed as inhibition of cell proliferation at 100 uM incubated for 24 to 72 hrs by MTT assay", "format": "functional, cell-based", "conditions": "time 24-72 hrs, TDE = time-dependent effect"}, "DU-145 [11]": {"system": "DU-145", "test": "Antiproliferative activity against human DU-145 cells assessed as inhibition of cell proliferation incubated for 72 hrs by MTT assay", "format": "functional, cell-based", "conditions": "DU-145, 72 h"}, "A549 [12]": {"system": "A549", "test": "Antiproliferative activity against human A549 cells assessed as inhibition of cell proliferation at 100 uM incubated for 24 to 72 hrs by MTT assay", "format": "functional, cell-based", "conditions": "time 24-72 hrs, TDE = time-dependent effect"}, "[13]": {"molecular_target": "T2, DNMT3A2/3L complex (Homo sapiens) (UniProt Q9Y6K1+Q9UJW3)", "T2 sequence (Q9UJW3 whole entry, looked up, the tested form may be a part)": "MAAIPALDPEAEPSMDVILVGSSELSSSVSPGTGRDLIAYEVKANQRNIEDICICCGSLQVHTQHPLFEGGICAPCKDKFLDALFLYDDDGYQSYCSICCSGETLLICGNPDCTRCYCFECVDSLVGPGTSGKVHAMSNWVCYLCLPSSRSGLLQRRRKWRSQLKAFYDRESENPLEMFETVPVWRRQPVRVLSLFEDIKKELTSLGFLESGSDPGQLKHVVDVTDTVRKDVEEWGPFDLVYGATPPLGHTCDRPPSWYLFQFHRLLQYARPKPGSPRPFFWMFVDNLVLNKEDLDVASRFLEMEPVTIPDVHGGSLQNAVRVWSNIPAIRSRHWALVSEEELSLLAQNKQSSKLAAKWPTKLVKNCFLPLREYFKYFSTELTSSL", "T2 sequence (Q9Y6K1 whole entry, looked up, the tested form may be a part)": "as the sequence (Q9Y6K1 whole entry, looked up) above", "test": "Inhibition of N-terminal His-tagged human DNMT3A (623 to 912 residues)/N-terminal GST-tagged human DNMT3L (160 to 387 residues) co-expressed in baculovirus infected Sf9 cells assessed as DNA methylation using DNA oligonucleotide IDT-01 as substrate at 10 uM preincubated for 15 mins followed by substrate addition in presence of [3H]-SAM and measured after 4 hrs by radioactive methylation assay", "conditions": "time 255.0 min"}, "A549 [14]": {"system": "A549", "test": "Antiproliferative activity against human A549 cells assessed as inhibition of cell proliferation at 0.1 to 100 uM incubated upto 72 hrs by MTT assay", "format": "functional, cell-based", "conditions": "dose 0.1-100 µM"}, "THP-1 [15]": {"system": "THP-1", "test": "Antiproliferative activity against human THP-1 cells assessed as inhibition of cell proliferation at 0.1 to 100 uM incubated upto 72 hrs by MTT assay", "format": "functional, cell-based", "conditions": "dose 0.1-100 µM"}, "K562 [16]": {"system": "K562", "test": "Antiproliferative activity against human K562 cells assessed as inhibition of cell proliferation at 0.1 to 100 uM incubated upto 72 hrs by MTT assay", "format": "functional, cell-based", "conditions": "dose 0.1-100 µM"}, "U-937 [17]": {"system": "U-937", "test": "Antiproliferative activity against human U-937 cells assessed as inhibition of cell proliferation at 0.1 to 100 uM incubated upto 72 hrs by MTT assay", "format": "functional, cell-based", "conditions": "dose 0.1-100 µM"}, "[18]": {"molecular_target": "T2, DNMT3A2/3L complex (Homo sapiens)", "test": "Competitive inhibition of N-terminal His-tagged human DNMT3A (623 to 912 residues)/N-terminal GST-tagged human DNMT3L (160 to 387 residues) co-expressed in baculovirus infected Sf9 cells assessed as DNA methylation using varying concentration of oligonucleotide IDT-01 as substrate preincubated for …", "conditions": "time 255.0 min"}, "[19]": {"molecular_target": "DNA (cytosine-5)-methyltransferase 3A (Homo sapiens) (UniProt Q9Y6K1)", "test": "Inhibition of DNMT3A in human HCT-116 cells assessed as increase in p53 protein level at 1 uM incubated for 72 hrs by Western blot analysis", "format": "cell-based"}, "DNMT3B": {"molecular_target": "DNMT3B (Homo sapiens, UniProt Q9UBC3)", "test": "Inhibition of N-terminal His-tagged human DNMT3B (564 to 853 residues)/N-terminal GST-tagged human DNMT3L (160 to 387 residues) co-expressed in baculovirus infected Sf9 cells assessed as DNA methylation using DNA oligonucleotide IDT-01 as substrate preincubated for 15 mins followed by substrate addition in presence of [3H]-SAM and measured after 4 hrs by radioactive methylation assay"}, "HCT-116 [20]": {"system": "HCT-116", "test": "Antiproliferative activity against human HCT-116 cells assessed as inhibition of cell proliferation at 0.1 to 100 uM incubated upto 72 hrs by MTT assay", "format": "functional, cell-based", "conditions": "dose 0.1-100 µM"}, "K562 [21]": {"system": "K562", "test": "Antiproliferative activity against human K562 cells assessed as inhibition of cell proliferation incubated for 72 hrs by MTT assay", "format": "functional, cell-based", "conditions": "K562, 72 h"}, "HCT-116 [22]": {"system": "HCT-116", "test": "cells", "conditions": "Homo sapiens, HCT-116, 72 h", "description": "Antiproliferative activity against human HCT-116 cells assessed as inhibition of cell proliferation incubated for 72 hrs by MTT assay"}, "HCT-116 [23]": {"system": "HCT-116", "test": "Antiproliferative activity against human HCT-116 cells assessed as inhibition of cell proliferation at 100 uM incubated for 24 to 72 hrs by MTT assay", "format": "functional, cell-based", "conditions": "time 24-72 hrs, TDE = time-dependent effect"}, "U-937 [24]": {"system": "U-937", "test": "cells", "conditions": "Homo sapiens, U-937, 72 h", "description": "Antiproliferative activity against human U-937 cells assessed as inhibition of cell proliferation incubated for 72 hrs by MTT assay"}, "[25]": {"molecular_target": "T2, DNMT3A2/3L complex (Homo sapiens)", "test": "Inhibition of N-terminal His-tagged human DNMT3A (623 to 912 residues)/N-terminal GST-tagged human DNMT3L (160 to 387 residues) co-expressed in baculovirus infected Sf9 cells assessed as DNA methylation using DNA oligonucleotide IDT-01 as substrate at 100 uM preincubated for 15 mins followed by substrate addition in presence of [3H]-SAM and measured after 4 hrs by radioactive methylation assay", "conditions": "time 255.0 min"}, "THP-1 [26]": {"system": "THP-1", "test": "Antiproliferative activity against human THP-1 cells assessed as inhibition of cell proliferation at 100 uM incubated for 24 to 72 hrs by MTT assay", "format": "functional, cell-based", "conditions": "time 24-72 hrs, TDE = time-dependent effect"}},
  "note": "Activity calls are given as the source filed them. The calls are words filed in the database; no cut-off is given here.",
  "data": [
    {"smiles": "Cc1oc2ncn(CCN3CCCC3)c(=O)c2c1C(=O)Nc1ccc(S(N)(=O)=O)nc1", "values": [
      {"measurement": "inhibition", "setting": "[1]", "result": "Active"},
      {"measurement": "IC50", "setting": "[2]", "result": "> 500", "unit": "µM"},
      {"measurement": "IC50 at 72 h", "setting": "[3]", "result": 91, "unit": "µM"},
      {"measurement": "Activity", "setting": "DU-145 [4]", "result": "Dose-Dependent Effect"},
      {"measurement": "IC50", "setting": "A549 [5]", "result": 2.1, "unit": "µM"},
      {"measurement": "Activity", "setting": "K562 [6]", "result": "Tde"},
      {"measurement": "IC50", "setting": "[7]", "result": 13, "unit": "µM"},
      {"measurement": "Activity", "setting": "DU-145 [8]", "result": "Tde"},
      {"measurement": "IC50", "setting": "THP-1 [9]", "result": 0.7, "unit": "µM"},
      {"measurement": "Activity", "setting": "U-937 [10]", "result": "Tde"},
      {"measurement": "IC50", "setting": "DU-145 [11]", "result": 1.7, "unit": "µM"},
      {"measurement": "Activity", "setting": "A549 [12]", "result": "Tde"},
      {"measurement": "inhibition", "setting": "[13]", "result": 83.8, "unit": "%"},
      {"measurement": "Activity", "setting": "A549 [14]", "result": "Dose-Dependent Effect"},
      {"measurement": "Activity", "setting": "THP-1 [15]", "result": "Dose-Dependent Effect"},
      {"measurement": "Activity", "setting": "K562 [16]", "result": "Dose-Dependent Effect"},
      {"measurement": "Activity", "setting": "U-937 [17]", "result": "Dose-Dependent Effect"},
      {"measurement": "inhibition", "setting": "[18]", "result": "Active"},
      {"measurement": "p53 protein level increase (active/not active)", "setting": "[19]", "result": "Active"},
      {"measurement": "IC50", "setting": "DNMT3B", "result": 105, "unit": "µM"},
      {"measurement": "Activity", "setting": "HCT-116 [20]", "result": "Dose-Dependent Effect"},
      {"measurement": "IC50", "setting": "K562 [21]", "result": 0.5, "unit": "µM"},
      {"measurement": "IC50", "setting": "HCT-116 [22]", "result": 0.3, "unit": "µM"},
      {"measurement": "Activity", "setting": "HCT-116 [23]", "result": "Tde"},
      {"measurement": "IC50", "setting": "U-937 [24]", "result": 0.7, "unit": "µM"},
      {"measurement": "inhibition", "setting": "[25]", "result": 93.1, "unit": "%"},
      {"measurement": "Activity", "setting": "THP-1 [26]", "result": "Tde"}
    ]}
  ]
}
